Source: ChEMBL document CHEMBL1201862, “PubChem BioAssay data set” (2004)
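Following 48 hours of exposure in 96-well plates, responses at five concentrations were used to interpolate endpoints linearly. GI50 marks 50% less growth.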 Calls of active or inactive are those of the source. No stated cut-off is given here; in the data, active = GI50 up to about 1.1 µM and inactive = higher.

Tests used:
Experiment in all cases: NCI-60 cell line screen, 48 h
U-251 = tested on: U-251
SK-MEL-28 = tested on: SK-MEL-28
Malme-3M = tested on: Malme-3M
M14 = tested on: M14
SR = tested on: SR
KM12 = tested on: KM12
UO-31 = tested on: UO-31
RXF 393 = tested on: RXF 393
MCF7 = tested on: MCF7
K562 = tested on: K562
UACC-62 = tested on: UACC-62
NCI-H460 = tested on: NCI-H460
OVCAR-5 = tested on: OVCAR-5
SF-295 = tested on: SF-295
HL-60 = tested on: HL-60
DU-145 = tested on: DU-145
IGROV-1 = tested on: IGROV-1
SNB-75 = tested on: SNB-75
OVCAR-4 = tested on: OVCAR-4
BT-549 = tested on: BT-549

Row | Compound | GI50 (U-251) | GI50 (SK-MEL-28) | GI50 (Malme-3M) | GI50 (M14) | GI50 (SR) | GI50 (KM12) | GI50 (UO-31) | GI50 (RXF 393) | GI50 (MCF7) | GI50 (K562) | GI50 (UACC-62) | GI50 (NCI-H460) | GI50 (OVCAR-5) | GI50 (SF-295) | GI50 (HL-60) | GI50 (DU-145) | GI50 (IGROV-1) | GI50 (SNB-75) | GI50 (OVCAR-4) | GI50 (BT-549)
1 | O=C(c1cccs1)N1CCc2ccccc2C1 | > 100 µM (inactive) | > 100 µM (inactive) | > 100 µM (inactive) | > 100 µM (inactive) | 97.5 µM (inactive) | 74.8 µM (inactive) | > 100 µM (inactive) | > 100 µM (inactive) | > 100 µM (inactive) | 39.1 µM (inactive) | > 100 µM (inactive) | > 100 µM (inactive) | > 100 µM (inactive) | > 100 µM (inactive) | 30.7 µM (inactive) | > 100 µM (inactive) | > 100 µM (inactive) |  |  | 
2 | CC1(C)N(OC2CCCCO2)C(c2ccccc2)C(c2ccccc2)=[N+]1[O-] (centres undefined) | > 100 µM (inactive) | > 100 µM (inactive) | > 100 µM (inactive) | 64 µM (inactive) | 27 µM (inactive) | 93.5 µM (inactive) | 59.8 µM (inactive) | 47.5 µM (inactive) | > 100 µM (inactive) | 58.9 µM (inactive) | > 100 µM (inactive) | 66.7 µM (inactive) | > 100 µM (inactive) | 41 µM (inactive) | 8.93 µM (inactive) |  | > 100 µM (inactive) | 20.1 µM (inactive) | > 100 µM (inactive) | > 100 µM (inactive)
3 | CC(=O)OC(C)(C)/C=C/C(=O)[C@](C)(O)[C@H]1[C@H](O)C[C@@]2(C)[C@@H]3CC=C4[C@@H](C[C@H](O)[C@H](O)C4(C)C)[C@]3(C)C(=O)C[C@]12C | 0.687 µM (active) | 0.526 µM (active) | 1.11 µM (active) | 0.442 µM (active) | 0.224 µM (active) | 0.467 µM (active) | 0.839 µM (active) | 0.383 µM (active) |  | 0.272 µM (active) | 0.48 µM (active) | 1.07 µM (active) | 0.883 µM (active) | 0.973 µM (active) | 0.243 µM (active) |  | 0.925 µM (active) | 0.261 µM (active) | 0.331 µM (active) | 
4 | C/C(CC(O)(C(F)(F)F)C(F)(F)F)=N\NC(N)=S | > 10 µM (inactive) | > 10 µM (inactive) | > 10 µM (inactive) | > 10 µM (inactive) | > 10 µM (inactive) | > 10 µM (inactive) | > 10 µM (inactive) | > 10 µM (inactive) | > 10 µM (inactive) | > 10 µM (inactive) | > 10 µM (inactive) | > 10 µM (inactive) |  | > 10 µM (inactive) | > 10 µM (inactive) | > 10 µM (inactive) | > 10 µM (inactive) | > 10 µM (inactive) | > 10 µM (inactive) | 
5 | COC(=O)/C=C(\CC(=O)OC)n1nnnc1[C@@H]1C[C@H](COC(c2ccccc2)(c2ccccc2)c2ccccc2)[C@H]2OC(C)(C)O[C@H]21 | > 100 µM (inactive) | > 100 µM (inactive) | > 100 µM (inactive) | > 100 µM (inactive) | 92 µM (inactive) | > 100 µM (inactive) | > 100 µM (inactive) | 42.1 µM (inactive) | 31.9 µM (inactive) | 65.5 µM (inactive) |  |  | > 100 µM (inactive) | > 100 µM (inactive) | > 100 µM (inactive) | > 100 µM (inactive) | 60.5 µM (inactive) | 37.2 µM (inactive) | > 100 µM (inactive) | 
6 | CC(C)(C)N/N=C(\C(=O)Nc1nnc(S)[nH]1)C1C(=O)Nc2ccccc2[S+]1[O-] (centres undefined) | > 100 µM (inactive) | > 100 µM (inactive) | > 100 µM (inactive) | > 100 µM (inactive) | > 100 µM (inactive) | > 100 µM (inactive) | > 100 µM (inactive) | > 100 µM (inactive) |  | > 100 µM (inactive) | > 100 µM (inactive) | > 100 µM (inactive) | > 100 µM (inactive) | > 100 µM (inactive) | > 100 µM (inactive) |  | > 100 µM (inactive) | > 100 µM (inactive) | > 100 µM (inactive) | 
7 | CCc1cc2c(c3c1CCC3=O)CC1(Cc3ccc(C)cc3C1)C2 (centres undefined) | 30.5 µM (inactive) |  | 32.1 µM (inactive) | > 100 µM (inactive) |  | 71.3 µM (inactive) | 0.159 µM (active) | 34.8 µM (inactive) | 32.2 µM (inactive) | 30.5 µM (inactive) | 22.2 µM (inactive) |  | 29.4 µM (inactive) | 80.2 µM (inactive) | 21.7 µM (inactive) |  | 42.9 µM (inactive) |  | 33.2 µM (inactive) | 
8 | COc1ccc(CNc2cc(=O)n(C)c(=O)[nH]2)cc1 | > 100 µM (inactive) | > 100 µM (inactive) | > 100 µM (inactive) | > 100 µM (inactive) | > 100 µM (inactive) | > 100 µM (inactive) | > 100 µM (inactive) | 35.6 µM (inactive) | > 100 µM (inactive) | > 100 µM (inactive) | > 100 µM (inactive) | > 100 µM (inactive) | > 100 µM (inactive) | > 100 µM (inactive) |  |  | > 100 µM (inactive) | 33.3 µM (inactive) | > 100 µM (inactive) | > 100 µM (inactive)
9 | COC(=O)[C@H]1COC(=S)N1C(=O)[C@@H](C)[C@H](O)C(C)C | > 100 µM (inactive) | > 100 µM (inactive) | > 100 µM (inactive) | > 100 µM (inactive) | > 100 µM (inactive) | > 100 µM (inactive) | > 100 µM (inactive) | > 100 µM (inactive) |  | > 100 µM (inactive) | > 100 µM (inactive) | > 100 µM (inactive) | > 100 µM (inactive) | > 100 µM (inactive) | > 100 µM (inactive) |  | > 100 µM (inactive) | 42 µM (inactive) | > 100 µM (inactive) | 
10 | C=CCC1(C#N)C(=S)NC2=C(C(=O)CC(C)(C)C2)C1c1ccccc1 (centres undefined) | 30.9 µM (inactive) | 61.8 µM (inactive) |  | 59.8 µM (inactive) | 50.6 µM (inactive) | 32.7 µM (inactive) | 36.4 µM (inactive) | 42.7 µM (inactive) |  | 82.2 µM (inactive) |  |  | > 100 µM (inactive) |  | > 100 µM (inactive) | 19.2 µM (inactive) | 55.1 µM (inactive) | 27 µM (inactive) | 31 µM (inactive) | 66.7 µM (inactive)
11 | CCCCCCCCCCCCCCCCNC(=O)/C(O)=C/C(=O)c1ccc(C)cc1 | > 10 µM (inactive) | > 10 µM (inactive) | > 10 µM (inactive) | > 10 µM (inactive) | > 10 µM (inactive) | > 10 µM (inactive) | > 10 µM (inactive) | > 10 µM (inactive) | > 10 µM (inactive) | > 10 µM (inactive) |  | > 10 µM (inactive) | > 10 µM (inactive) | > 10 µM (inactive) | 8.05 µM (inactive) | > 10 µM (inactive) | > 10 µM (inactive) | > 10 µM (inactive) | > 10 µM (inactive) | 
12 | Nc1cc2ncnc(Nc3cccc(Br)c3)c2cn1 | 18.7 µM (inactive) | 71.9 µM (inactive) | > 100 µM (inactive) | 38 µM (inactive) | > 100 µM (inactive) | 22.2 µM (inactive) | 21.5 µM (inactive) | 41.5 µM (inactive) |  | > 100 µM (inactive) | 38.5 µM (inactive) | 30 µM (inactive) | 26.7 µM (inactive) | 26.9 µM (inactive) | > 100 µM (inactive) |  | > 10 µM (inactive) | 33.7 µM (inactive) | 39.9 µM (inactive) | > 100 µM (inactive)
13 | CCNc1cc2c3c(c1)CCN3CCC2 | > 10 µM (inactive) | > 10 µM (inactive) | > 10 µM (inactive) | > 10 µM (inactive) | 5.32 µM (inactive) | 5.6 µM (inactive) | > 10 µM (inactive) | > 10 µM (inactive) | > 10 µM (inactive) | 1.72 µM (inactive) | > 10 µM (inactive) | > 10 µM (inactive) |  | > 10 µM (inactive) | 3.23 µM (inactive) | > 10 µM (inactive) | > 10 µM (inactive) | > 10 µM (inactive) | > 10 µM (inactive) | 
14 | O=C1c2ccccc2-c2ccccc2C(=O)C1(Br)Br | 15.8 µM (inactive) | 7.28 µM (inactive) | 3.93 µM (inactive) | 5.33 µM (inactive) | 2.02 µM (inactive) | 17.7 µM (inactive) | 14.4 µM (inactive) | 3.56 µM (inactive) |  | 4.13 µM (inactive) | 7.36 µM (inactive) | 19.1 µM (inactive) | 18.1 µM (inactive) | 16.1 µM (inactive) | 2.15 µM (inactive) |  | 14 µM (inactive) | 12.9 µM (inactive) | 13.7 µM (inactive) | 
15 | CC[C@@]1(CCC(=O)NCCc2c[nH]c3ccccc23)CCC(=O)N2CCc3c([nH]c4ccccc34)[C@H]21 | 29.8 µM (inactive) | 39.4 µM (inactive) | 5.35 µM (inactive) | 12.6 µM (inactive) |  | 4.19 µM (inactive) | 22.9 µM (inactive) | 6.12 µM (inactive) | 4.44 µM (inactive) | 7.45 µM (inactive) | 17.1 µM (inactive) | 6.89 µM (inactive) | 22.8 µM (inactive) | 5.13 µM (inactive) |  | 29 µM (inactive) | 4.04 µM (inactive) |  | 12.9 µM (inactive) | 4.31 µM (inactive)
16 | ClCCNCCNCCCl.ClCCNCCNCCCl.[O-][Cl+3]([O-])([O-])O | 25.4 µM (inactive) | 46.2 µM (inactive) | 19.5 µM (inactive) | 19.5 µM (inactive) | 23.1 µM (inactive) | > 100 µM (inactive) | 26.8 µM (inactive) | 40.7 µM (inactive) |  | 23.6 µM (inactive) | 26.9 µM (inactive) | 22.3 µM (inactive) | 24.9 µM (inactive) | 54.6 µM (inactive) | 30.3 µM (inactive) |  | 22.5 µM (inactive) | 19 µM (inactive) | 22.3 µM (inactive) | 
